Literature values in paper PMC12675387, “Receptor interaction profiles of 4-alkoxy-2,6-dimethoxyphenethylamines (Ψ derivatives) and related amphetamines” (Frontiers in Pharmacology, 2025).
Where two headings read alike, the source gives them in different places.

Columns and labels:
[1] = target: rTAAR1 (Rattus norvegicus, UniProt Q923Y9); set-up: expressed in transfected cells; host or cells: HEK 293 cells (membrane preparations); details: cited from earlier work
[2] = target: T1, human 5-HT2B receptor (Homo sapiens, UniProt P41595); set-up: method as in Luethi et al., 2018; details: reference substances; ref Luethi et al., 2018; cited from earlier work
T1 construct: expressed in transfected cells; host or cells: HEK 293 cells

[3] = target: T2, human 5-HT2A receptor (Homo sapiens, UniProt P28223); details: cited from earlier work; for h5-HT2A activation efficacy Emax ± SD: reference substances, ref Luethi et al., 2018; for type of agonism at the 5-HT2A receptor: ref Kolaczynska et al., 2019
T2 construct: expressed in transfected cells; host or cells: NIH-3T3 mouse embryonic fibroblasts

[4] = cited from earlier work; for duration of effects in humans / psychoactive dose in humans: anecdotal; for fold increase in human potency from mescaline: ref Kolaczynska et al., 2022
[5] = target: h5-HT2A receptor (Homo sapiens, UniProt P28223); set-up: expressed in transfected cells; host or cells: HEK 293 cells (membrane preparations); details: ref Kolaczynska et al., 2022; cited from earlier work
[6] = target: T3, hα2A adrenergic receptor (Homo sapiens, UniProt P08913); set-up: expressed in transfected cells; host or cells: Chinese hamster lung cells (membrane preparations); method as in Luethi et al. (2019b); details: reference substance; ref Luethi et al. (2019b); read-out: hα2A Ki ± SD; cited from earlier work
T3 sequence (P08913 1-465): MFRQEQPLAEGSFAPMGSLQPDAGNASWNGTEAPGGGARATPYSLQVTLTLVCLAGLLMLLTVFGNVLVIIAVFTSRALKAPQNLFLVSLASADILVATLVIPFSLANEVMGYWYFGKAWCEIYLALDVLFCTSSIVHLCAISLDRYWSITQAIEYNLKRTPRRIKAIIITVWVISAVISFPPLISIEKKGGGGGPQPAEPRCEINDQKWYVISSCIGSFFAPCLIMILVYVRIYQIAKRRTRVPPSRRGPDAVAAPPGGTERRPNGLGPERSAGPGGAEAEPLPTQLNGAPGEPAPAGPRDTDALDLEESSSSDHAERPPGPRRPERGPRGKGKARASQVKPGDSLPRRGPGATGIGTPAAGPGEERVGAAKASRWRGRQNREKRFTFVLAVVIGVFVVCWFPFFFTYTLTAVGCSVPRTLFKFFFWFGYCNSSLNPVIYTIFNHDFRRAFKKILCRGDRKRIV

[7] = target: mTAAR1 (Mus musculus, UniProt Q923Y8); set-up: expressed in transfected cells; host or cells: HEK 293 cells (membrane preparations); method as in Luethi et al. (2019b); details: reference substance; ref Luethi et al. (2019b); read-out: mTAAR1 Ki ± SD; cited from earlier work
[8] = target: T4, hα1A adrenergic receptor (Homo sapiens, UniProt P35348); set-up: expressed in transfected cells; host or cells: Chinese hamster ovary cells (membrane preparations); method as in Luethi et al. (2019b); details: reference substance; ref Luethi et al. (2019b); read-out: hα1A Ki ± SD; cited from earlier work
T4 sequence (P35348 1-466): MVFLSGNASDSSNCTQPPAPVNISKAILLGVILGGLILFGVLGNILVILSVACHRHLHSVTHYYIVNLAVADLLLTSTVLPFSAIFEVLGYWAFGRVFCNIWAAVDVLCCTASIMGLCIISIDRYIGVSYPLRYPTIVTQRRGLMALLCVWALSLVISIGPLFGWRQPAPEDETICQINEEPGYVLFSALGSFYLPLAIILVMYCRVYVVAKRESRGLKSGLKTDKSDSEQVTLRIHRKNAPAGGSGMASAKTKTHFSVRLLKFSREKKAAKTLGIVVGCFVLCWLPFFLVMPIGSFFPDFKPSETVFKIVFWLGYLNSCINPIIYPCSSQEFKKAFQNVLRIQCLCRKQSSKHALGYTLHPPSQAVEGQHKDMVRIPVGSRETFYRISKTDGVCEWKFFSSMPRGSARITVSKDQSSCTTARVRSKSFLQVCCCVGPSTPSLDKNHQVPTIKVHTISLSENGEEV

[9] = target: hNET (Homo sapiens, UniProt P23975); set-up: expressed in transfected cells; host or cells: HEK 293 cells (membrane preparations); method as in Luethi et al. (2019b); details: reference substance; ref Luethi et al. (2019b); read-out: hNET Ki ± SD; cited from earlier work
[10] = target: hDAT (Homo sapiens, UniProt Q01959); set-up: expressed in transfected cells; host or cells: HEK 293 cells (membrane preparations); method as in Luethi et al. (2019b); details: reference substance; ref Luethi et al. (2019b); read-out: hDAT Ki ± SD; cited from earlier work
[11] = target: hD2 receptor (Homo sapiens, UniProt P14416); set-up: expressed in transfected cells; host or cells: HEK 293 cells (membrane preparations); method as in Luethi et al. (2019b); details: reference substance; ref Luethi et al. (2019b); read-out: hD2 Ki ± SD; cited from earlier work
[12] = target: hSERT (Homo sapiens, UniProt P31645); set-up: expressed in transfected cells; host or cells: HEK 293 cells (membrane preparations); method as in Luethi et al. (2019b); details: reference substance; ref Luethi et al. (2019b); read-out: hSERT Ki ± SD; cited from earlier work
Chain of hSERT (P31645 whole entry): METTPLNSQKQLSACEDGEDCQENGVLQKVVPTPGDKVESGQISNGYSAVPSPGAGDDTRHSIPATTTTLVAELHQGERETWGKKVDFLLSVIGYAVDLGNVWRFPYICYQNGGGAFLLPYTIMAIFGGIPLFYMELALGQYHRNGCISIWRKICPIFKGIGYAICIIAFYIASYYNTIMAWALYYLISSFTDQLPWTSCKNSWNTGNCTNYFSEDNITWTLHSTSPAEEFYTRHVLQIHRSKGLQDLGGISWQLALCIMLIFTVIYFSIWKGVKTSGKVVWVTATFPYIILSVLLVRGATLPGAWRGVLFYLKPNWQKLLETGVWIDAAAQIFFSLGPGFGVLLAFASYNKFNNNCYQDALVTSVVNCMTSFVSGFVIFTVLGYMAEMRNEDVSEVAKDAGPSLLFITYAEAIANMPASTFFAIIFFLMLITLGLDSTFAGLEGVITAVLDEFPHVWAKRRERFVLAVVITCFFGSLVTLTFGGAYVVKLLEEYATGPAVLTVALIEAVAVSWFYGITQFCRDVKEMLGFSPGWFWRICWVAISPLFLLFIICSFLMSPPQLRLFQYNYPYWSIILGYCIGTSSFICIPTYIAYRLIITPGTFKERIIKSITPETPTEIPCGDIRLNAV

T2 sequence (P28223 whole entry): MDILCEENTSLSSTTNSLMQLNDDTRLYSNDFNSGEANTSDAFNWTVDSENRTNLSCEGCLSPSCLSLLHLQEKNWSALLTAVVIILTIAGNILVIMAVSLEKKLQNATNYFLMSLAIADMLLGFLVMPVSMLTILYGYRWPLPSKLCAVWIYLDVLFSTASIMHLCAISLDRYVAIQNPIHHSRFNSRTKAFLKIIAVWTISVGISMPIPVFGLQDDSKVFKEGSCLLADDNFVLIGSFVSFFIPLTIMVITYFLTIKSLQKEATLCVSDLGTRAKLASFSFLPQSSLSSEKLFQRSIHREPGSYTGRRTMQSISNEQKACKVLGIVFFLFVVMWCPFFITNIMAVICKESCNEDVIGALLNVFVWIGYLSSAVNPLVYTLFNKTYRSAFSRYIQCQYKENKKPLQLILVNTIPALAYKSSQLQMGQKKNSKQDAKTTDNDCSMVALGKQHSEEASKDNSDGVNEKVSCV
Chain of h5-HT2A receptor (P28223 whole entry): as above
Chain of rTAAR1 (Q923Y9 whole entry): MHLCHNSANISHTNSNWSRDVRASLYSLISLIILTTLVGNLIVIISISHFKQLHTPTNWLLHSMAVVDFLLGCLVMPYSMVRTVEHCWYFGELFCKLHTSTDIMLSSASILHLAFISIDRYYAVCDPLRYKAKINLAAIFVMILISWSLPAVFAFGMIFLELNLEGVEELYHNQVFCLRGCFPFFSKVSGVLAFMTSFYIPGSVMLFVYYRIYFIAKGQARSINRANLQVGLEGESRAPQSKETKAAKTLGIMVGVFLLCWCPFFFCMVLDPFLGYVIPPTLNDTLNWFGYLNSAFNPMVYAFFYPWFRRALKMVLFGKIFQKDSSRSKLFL
Chain of hD2 receptor (P14416 whole entry): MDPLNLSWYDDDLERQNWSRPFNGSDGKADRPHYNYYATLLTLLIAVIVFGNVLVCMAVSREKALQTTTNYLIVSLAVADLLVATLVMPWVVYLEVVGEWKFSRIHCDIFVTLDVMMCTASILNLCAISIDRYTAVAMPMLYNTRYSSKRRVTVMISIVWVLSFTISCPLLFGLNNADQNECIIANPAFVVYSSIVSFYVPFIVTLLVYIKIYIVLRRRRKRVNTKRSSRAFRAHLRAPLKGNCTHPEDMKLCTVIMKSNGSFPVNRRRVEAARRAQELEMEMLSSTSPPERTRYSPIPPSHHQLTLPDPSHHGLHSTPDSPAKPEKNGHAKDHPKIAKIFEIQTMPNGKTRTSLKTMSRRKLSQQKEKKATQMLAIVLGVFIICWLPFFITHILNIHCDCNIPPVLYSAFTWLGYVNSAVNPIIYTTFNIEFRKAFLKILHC
Chain of hDAT (Q01959 whole entry): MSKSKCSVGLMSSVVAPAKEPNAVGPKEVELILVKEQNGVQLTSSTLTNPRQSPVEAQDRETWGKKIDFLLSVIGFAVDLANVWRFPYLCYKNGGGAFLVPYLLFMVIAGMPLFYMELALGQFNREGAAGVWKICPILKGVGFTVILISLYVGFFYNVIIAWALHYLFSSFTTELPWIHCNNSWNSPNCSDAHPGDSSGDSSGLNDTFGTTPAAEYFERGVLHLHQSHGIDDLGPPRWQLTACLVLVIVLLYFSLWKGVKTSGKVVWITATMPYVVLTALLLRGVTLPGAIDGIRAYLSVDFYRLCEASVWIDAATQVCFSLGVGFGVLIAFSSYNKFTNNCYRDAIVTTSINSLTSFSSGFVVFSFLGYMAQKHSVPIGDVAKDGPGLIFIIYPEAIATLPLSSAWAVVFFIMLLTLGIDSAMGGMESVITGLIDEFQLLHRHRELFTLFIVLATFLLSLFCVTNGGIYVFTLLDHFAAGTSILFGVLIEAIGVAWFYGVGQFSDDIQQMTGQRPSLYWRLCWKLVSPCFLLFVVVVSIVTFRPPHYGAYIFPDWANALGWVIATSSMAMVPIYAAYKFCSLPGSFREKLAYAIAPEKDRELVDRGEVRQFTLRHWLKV
Chain of hNET (P23975 whole entry): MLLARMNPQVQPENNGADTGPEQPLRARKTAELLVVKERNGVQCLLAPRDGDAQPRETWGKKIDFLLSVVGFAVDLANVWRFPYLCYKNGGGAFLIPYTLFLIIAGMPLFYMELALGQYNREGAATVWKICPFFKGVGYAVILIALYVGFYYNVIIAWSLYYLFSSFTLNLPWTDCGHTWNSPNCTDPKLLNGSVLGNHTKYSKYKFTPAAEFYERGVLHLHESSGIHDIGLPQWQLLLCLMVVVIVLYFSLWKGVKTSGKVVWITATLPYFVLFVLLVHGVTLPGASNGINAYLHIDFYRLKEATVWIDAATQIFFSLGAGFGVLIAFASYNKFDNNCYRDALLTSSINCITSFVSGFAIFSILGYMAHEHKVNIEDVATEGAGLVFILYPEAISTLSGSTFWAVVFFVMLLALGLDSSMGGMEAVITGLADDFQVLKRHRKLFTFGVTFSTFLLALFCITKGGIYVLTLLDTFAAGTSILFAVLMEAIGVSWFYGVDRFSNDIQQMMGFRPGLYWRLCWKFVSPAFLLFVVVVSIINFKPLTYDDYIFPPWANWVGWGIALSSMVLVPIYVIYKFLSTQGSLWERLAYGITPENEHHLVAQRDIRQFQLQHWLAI
T1 sequence (P41595 whole entry): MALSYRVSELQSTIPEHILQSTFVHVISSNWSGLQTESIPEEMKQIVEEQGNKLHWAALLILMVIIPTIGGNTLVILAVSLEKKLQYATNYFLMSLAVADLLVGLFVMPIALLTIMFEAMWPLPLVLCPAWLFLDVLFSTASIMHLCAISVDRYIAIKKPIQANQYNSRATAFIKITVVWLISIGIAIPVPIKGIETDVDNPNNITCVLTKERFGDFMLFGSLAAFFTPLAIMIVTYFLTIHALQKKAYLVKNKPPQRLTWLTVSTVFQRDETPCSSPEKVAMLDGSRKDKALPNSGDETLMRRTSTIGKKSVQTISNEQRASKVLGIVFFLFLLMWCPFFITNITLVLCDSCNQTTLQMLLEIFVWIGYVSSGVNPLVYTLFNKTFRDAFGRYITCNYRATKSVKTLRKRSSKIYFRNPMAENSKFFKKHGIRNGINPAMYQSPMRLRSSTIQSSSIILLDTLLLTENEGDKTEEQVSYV
Chain of mTAAR1 (Q923Y8 whole entry): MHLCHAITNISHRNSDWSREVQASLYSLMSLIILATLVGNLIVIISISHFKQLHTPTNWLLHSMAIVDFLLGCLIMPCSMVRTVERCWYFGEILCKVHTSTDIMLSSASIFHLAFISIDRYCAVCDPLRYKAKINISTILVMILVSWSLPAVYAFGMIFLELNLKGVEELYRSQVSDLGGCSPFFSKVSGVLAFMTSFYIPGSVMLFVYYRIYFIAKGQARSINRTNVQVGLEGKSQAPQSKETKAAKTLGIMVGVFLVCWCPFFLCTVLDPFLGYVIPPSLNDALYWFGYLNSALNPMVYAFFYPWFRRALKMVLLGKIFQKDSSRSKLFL

SMILES: CCOc1cc(OC)c(CCN)cc1OC [2C-O-2]
- Ki ([1]; read-out: TAAR1 Ki (rat and mouse TAAR1 as worded; compared with the rat value of Ψ-2C-O-2), 2,4,5-trisubstituted derivative, ref Kolaczynska et al., 2019): 0.67 µM

SMILES: COc1cc(CCN)c(OC)cc1Br [2C-B, 4-bromo-2,5-dimethoxyphenethylamine]
- h5-HT2B activation efficacy Emax ± SD [2]: 52 ± 26%
- h5-HT2A activation efficacy Emax ± SD [3]: 92 ± 8%

SMILES: COc1cc(SC(C)C)c(OC)cc1CCN [2C-T-4]
- duration of effects in humans ([4]; ref Shulgin and Shulgin, 1991): 12 to 18 h
- psychoactive dose in humans ([4]; ref Shulgin and Shulgin, 1991): 8 to 20 mg

SMILES: COc1cc(OC)c(OC)cc1CC(C)N (stereo not shown) [TMA-2]
- duration of effects in humans ([4]; ref Shulgin and Shulgin, 1991): 8 to 12 h
- psychoactive dose in humans ([4]; ref Shulgin and Shulgin, 1991): 20 to 40 mg

SMILES: C=C(C)COc1cc(OC)c(CC(C)N)cc1OC (stereo not shown) [MMALM]
- type of agonism at the 5-HT2A receptor [3]: full agonists

SMILES: COc1cc(C)cc(OC)c1CC(C)N (stereo not shown) [Ψ-DOM, 2,6-dimethoxy-4-methylamphetamine]
- duration of effects in humans ([4]; ref Shulgin and Shulgin, 1991): 6 to 8 h
- psychoactive dose in humans ([4]; ref Shulgin and Shulgin, 1991): 15 to 25 mg

SMILES: CCN(CC)C(=O)[C@@H]1C=C2c3cccc4[nH]cc(c34)C[C@H]2N(C)C1 [LSD, lysergic acid diethylamide]
- h5-HT2A activation efficacy Emax ± SD [3]: 73 ± 2%

SMILES: COc1cc(CCN)cc(OC)c1OC(F)(F)F [trifluoromescaline]
- fold increase in receptor affinity (Ki values) from mescaline [5]: 33 fold
- fold increase in human potency from mescaline [4]: > 9 fold

SMILES: C=CCOc1cc(OC)c(CC(C)N)cc1OC (stereo not shown) [MALM]
- type of agonism at the 5-HT2A receptor [3]: full agonists

SMILES: COc1cc(SC(C)C)cc(OC)c1CCN [Ψ-2C-T-4, 2,6-dimethoxy-4-isopropylthiophenethylamine]
- psychoactive dose in humans ([4]; ref Shulgin and Shulgin, 1991): > 12 mg
- activity in humans ([4]; highest dose evaluated (12 mg), anecdotal report, ref Shulgin and Shulgin, 1991): inactive

SMILES: COc1cc(CCN)cc(OC)c1OC(F)F [DFM]
- fold increase in receptor affinity (Ki values) from mescaline [5]: 3 fold
- fold increase in human potency from mescaline [4]: 4 fold

SMILES: CNC(C)Cc1ccc2c(c1)OCO2 (stereo not shown) [MDMA]
- Ki [6]: 4.6 µM
- Ki [7]: 3.1 µM
- Ki [8]: 6.9 µM
- Ki [9]: > 8.7 µM
- Ki [10]: > 8.5 µM
- Ki ([1]; reference substance, ref Luethi et al. (2019b), read-out: rTAAR1 Ki ± SD): 0.25 ± 0.01 µM
- Ki [11]: > 13 µM
- Ki [12]: > 7.5 µM

SMILES: COc1cc(CC(C)N)c(OC)cc1C (stereo not shown) [DOM]
- duration of effects in humans ([4]; ref Shulgin and Shulgin, 1991): 14 to 20 h
- psychoactive dose in humans ([4]; ref Shulgin and Shulgin, 1991): 3 to 10 mg
